Assay [1] has as its target T1, catalytic domain (JH1, amino acids 826-1132) of human JAK2 (Homo sapiens, UniProt O60674).
T1 construct: catalytic domain (JH1, amino acids 826-1132) of human JAK2; FLAG (N); biotin (biotinylated); purchased Carna Biosciences 08-445-20N; host or cells: baculovirus expression system
The experiment in a line: JAK2 LanthaScreen JH1 Binding Assay. To be noted: JAK2 JH1 1.5 nM, 50 nM tracer, 2 hours at 25° C.; read-out: JH1 BIND. An outline of the steps: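 FLAG-tagged, biotinylated JAK2 JH1 (aa 826-1132, baculovirus-expressed; 1.5 nM) incubated 2 h at 25° C with compounds, 50 nM fluorescent tracer and 0.5 nM Streptavidin-Tb in Tris pH 7.5 buffer with MgCl2, Brij-35, BSA, EGTA, glycerol, DTT. Nonspecific binding defined with 2 mM ATP; TR-FRET IC50 from four-parameter fit.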

Assay [2] deals with T2, pseudo-kinase domain (JH2, amino-acids 536-812) of human Wild Type JAK2 (Homo sapiens, UniProt O60674, F794H/W659A/W777A).
T2 construct: pseudo-kinase domain (JH2, amino-acids 536-812 with 3 surface mutations W659A, W777A, F794H); His (C); purchased BPS Bioscience 79463; host or cells: baculovirus expression system
Nature of the assay: JAK2 LanthaScreen JH2-WT Binding Assay. To be noted: JAK2 JH2-WT 0.145 nM, 50 nM tracer, 1 hour at 25° C.; read-out: JH2 BIND WT. The essentials: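 IC50 values derive from four-parameter fits of LanthaScreen signal, measuring displacement of 50 nM fluorescent tracer from 0.145 nM biotinylated, baculovirus-expressed JH2 (536-812) detected by 0.25 nM streptavidin-Tb. Incubation lasts 1 hour at 25° C, pH 7.5.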
In general terms: TR-FRET usually uses a lanthanide donor and a delayed reading to cut background.

Assay [3] addresses T3, pseudo-kinase domain (JH2, amino-acids 536-812) of human V617F mutant JAK2 (Homo sapiens, UniProt O60674, F794H/V617F/W659A/W777A).
T3 construct: pseudo-kinase domain (JH2, amino-acids 536-812 with 3 surface mutations W659A, W777A, F794H); His (C); purchased BPS Bioscience 79498; host or cells: baculovirus expression system
Nature of the assay: JAK2 LanthaScreen JH2-V617F Binding Assay. As to conditions: JAK2 JH2-V617F 0.26 nM, 50 nM tracer, 1 hour at 25° C.; read-out: JH2 BIND V617F. An outline of the steps:
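Competition of compounds with a fluorescent tracer (50 nM) for the biotinylated domain (0.26 nM), detected via streptavidin-Tb (0.25 nM) after 1 h at 25° C in pH 7.5 Tris buffer containing glycerol, BSA and Brij-35. ATP at 2 mM gave background. IC50 by four-parameter fit.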

The target of assay [4] is catalytic domain (JH1, amino acids 808-1132) of human JAK2 (Homo sapiens, UniProt O60674). The experiment in a line: JAK2 HTRF Enzyme Activity Assay. Format: biochemical. As to conditions: ATP 30 µM, 60 minutes at 25° C.; read-out: V617F ENZ 30 UM.

Results on 15 compounds are retold here after patent US20240317744A1, “Bicyclic Ureas As Kinase Inhibitors” (Incyte Corporation, priority 2023, published 2024).

Bounds are passed on as bounds.

T3 sequence (O60674 536-812 V617F/W659A/W777A/F794H): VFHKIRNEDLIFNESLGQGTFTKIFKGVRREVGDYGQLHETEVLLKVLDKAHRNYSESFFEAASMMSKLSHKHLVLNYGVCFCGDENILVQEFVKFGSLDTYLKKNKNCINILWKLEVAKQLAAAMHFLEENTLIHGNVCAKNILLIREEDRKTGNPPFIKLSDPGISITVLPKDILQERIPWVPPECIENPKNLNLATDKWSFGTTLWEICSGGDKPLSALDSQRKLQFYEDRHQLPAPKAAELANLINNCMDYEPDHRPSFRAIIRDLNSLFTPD
catalytic domain (JH1, amino acids 808-1132) of human JAK2, sequence (O60674 808-1132 limits assumed): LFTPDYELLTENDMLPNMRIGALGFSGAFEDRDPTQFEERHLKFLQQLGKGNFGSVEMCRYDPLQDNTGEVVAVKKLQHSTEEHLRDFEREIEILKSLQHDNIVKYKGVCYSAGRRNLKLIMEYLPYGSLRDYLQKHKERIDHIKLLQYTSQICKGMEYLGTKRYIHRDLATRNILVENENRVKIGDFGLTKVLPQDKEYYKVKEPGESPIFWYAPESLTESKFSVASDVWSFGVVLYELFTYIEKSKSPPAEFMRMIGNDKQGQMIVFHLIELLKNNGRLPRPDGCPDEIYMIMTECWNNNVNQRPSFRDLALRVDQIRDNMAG
T2 sequence (O60674 536-812 W659A/W777A/F794H): as the sequence (O60674 536-812 V617F/W659A/W777A/F794H) above, with F82V counted along it
T1 sequence (O60674 826-1132): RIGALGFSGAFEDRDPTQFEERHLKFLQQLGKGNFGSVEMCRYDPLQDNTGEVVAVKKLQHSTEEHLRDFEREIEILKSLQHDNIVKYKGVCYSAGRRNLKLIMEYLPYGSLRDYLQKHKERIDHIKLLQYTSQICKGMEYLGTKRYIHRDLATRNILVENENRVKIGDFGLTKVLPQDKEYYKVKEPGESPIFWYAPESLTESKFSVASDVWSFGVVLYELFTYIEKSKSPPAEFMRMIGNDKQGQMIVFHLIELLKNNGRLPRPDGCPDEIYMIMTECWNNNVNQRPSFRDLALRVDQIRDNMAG

With `C#CCOC(=O)N[C@@H]1CC[C@@H](n2c(=O)n(C)c3cnc(Nc4cc(NC(=O)OC5CCC5)cc(-c5cnn(C)c5)c4)cc32)C1` [Example 47, Prop-2-yn-1-yl ((1R,3R)-3-(6-((3-((cyclobutoxycarbonyl)amino)-5-(1-methyl-1H-pyrazol-4-yl)phenyl)amino)-3-methyl-2-oxo-2,3-dihydro-1H-imidazo[4,5-c)pyridin-1-yl)cyclopentyl)carbamate], the IC50 in assay [1] is above 1 µM; in assay [2], at most 0.01 µM; in assay [3] it was at most 0.01 µM; in assay [4] it was above 1 µM.

Turning to `Cn1cc(-c2cc(NC(=O)OC3CCC3)cc(Nc3cc4c(cn3)n(C)c(=O)n4[C@@H]3CC[C@@H](NC(=O)OC4CCOCC4)C3)c2)cn1` [Example 48, Tetrahydro-2H-pyran-4-yl ((1R,3R)-3-(6-((3-((cyclobutoxycarbonyl)amino)-5-(1-methyl-1H-pyrazol-4-yl)phenyl)amino)-3-methyl-2-oxo-2,3-dihydro-1H-imidazo[4,5-c]pyridin-1-yl)cyclopentyl)carbamate], the IC50 was above 1 µM in assay [1], 0.01 to 0.1 µM in assay [2], 0.01 to 0.1 µM in assay [3] and above 1 µM in assay [4].

For `Cn1cc(-c2cc(NC(=O)OC3CCC3)cc(Nc3cc4c(cn3)n(C)c(=O)n4[C@@H]3CC[C@@H](NC(=O)Oc4ccc(F)cc4)C3)c2)cn1` [Example 49, 4-Fluorophenyl ((1R,3R)-3-(6-((3-((cyclobutoxycarbonyl)amino)-5-(1-methyl-1H-pyrazol-4-yl)phenyl)amino)-3-methyl-2-oxo-2,3-dihydro-1H-imidazo[4,5-c]pyridin-1-yl)cyclopentyl)carbamate], the IC50 in assay [1] was above 1 µM; in assay [2], at most 0.01 µM; in assay [3], at most 0.01 µM; in assay [4], above 1 µM.

Regarding `[2H]C([2H])([2H])n1c(=O)n([C@@H]2CC[C@@H](NC(=O)OC)C2)c2cc(Nc3cccc(C4CC4)n3)ncc21` [Example 50, Methyl ((1R,3R)-3-(6-((6-cyclopropylpyridin-2-yl)amino)-3-(methyl-d3)-2-oxo-2,3-dihydro-1H-imidazo[4,5-c]pyridin-1-yl)cyclopentyl)carbamate], the IC50 in assay [1] was above 1 µM; in assay [2], at most 0.01 µM; in assay [3], 0.01 to 0.1 µM; in assay [4] it was above 1 µM.

As to `COC(=O)N[C@@H]1CC[C@@H](n2c(=O)n(C)c3cnc(Nc4cc(-c5cnn(C)c5)cc(-c5cccc(C#N)c5)n4)cc32)C1` [Example 51, Methyl ((1R,3R)-3-(6-((6-(3-cyanophenyl)-4-(1-methyl-1H-pyrazol-4-yl)pyridin-2-yl)amino)-3-methyl-2-oxo-2,3-dihydro-1H-imidazo[4,5-c]pyridin-1-yl)cyclopentyl)carbamate], the IC50 in assay [1] was above 1 µM; in assay [2] it was at most 0.01 µM; in assay [3], 0.01 to 0.1 µM; in assay [4], above 1 µM.

In the case of `[2H]C([2H])([2H])n1c(=O)n([C@@H]2CC[C@@H](NC(=O)OC)C2)c2cc(Nc3cc(C(=O)N4CCOCC4)c4cccc(C(F)(F)F)c4n3)ncc21` [Example 52, Methyl ((1R,3R)-3-(3-(methyl-d3)-6-((4-(morpholine-4-carbonyl)-8-(trifluoromethyl)quinolin-2-yl)amino)-2-oxo-2,3-dihydro-1H-imidazo[4,5-c]pyridin-1-yl)cyclopentyl)carbamate], the IC50 in assay [1] was 0.5 to 1 µM; in assay [2], at most 0.01 µM; in assay [3], at most 0.01 µM; in assay [4] it was 0.5 to 1 µM.

With `COC(=O)Nc1cc(Nc2cc3c(cn2)n(C)c(=O)n3[C@@H]2CC[C@@H](NC(=O)OC)C2)cc(-c2cnn(C)c2)c1` [Example 53, Methyl ((1R,3R)-3-(6-((3-((methoxycarbonyl)amino)-5-(1-methyl-1H-pyrazol-4-yl)phenyl)amino)-3-methyl-2-oxo-2,3-dihydro-1H-imidazo[4,5-c]pyridin-1-yl)cyclopentyl)carbamate], the IC50 in assay [1] is above 1 µM; in assay [2], at most 0.01 µM; in assay [3], 0.01 to 0.1 µM; in assay [4], above 1 µM.

Take `[2H]C([2H])([2H])n1c(=O)n([C@@H]2CC[C@@H](NC(=O)OC)C2)c2cc(Nc3ccc4ncc(C5CC5)n4n3)ncc21` [Example 54, Methyl ((1R,3R)-3-(6-((3-cyclopropylimidazo[1,2-b]pyridazin-6-yl)amino)-3-(methyl-d3)-2-oxo-2,3-dihydro-1H-imidazo[4,5-c]pyridin-1-yl)cyclopentyl)carbamate]: the IC50 in assay [1] was above 1 µM; in assay [2] it was at most 0.01 µM; in assay [3], at most 0.01 µM; in assay [4], above 1 µM.

For the compound `COC(=O)N[C@@H]1CC[C@@H](n2c(=O)n(C)c3cnc(Nc4cc(NC(=O)OC5CC5)cc(OC)c4)cc32)C1` [Example 55, Methyl ((1R,3R)-3-(6-((3-((cyclopropoxycarbonyl)amino)-5-methoxyphenyl)amino)-3-methyl-2-oxo-2,3-dihydro-1H-imidazo[4,5-c]pyridin-1-yl)cyclopentyl)carbamate], the IC50 in assay [1] was above 1 µM; in assay [2], at most 0.01 µM; in assay [3] it was 0.01 to 0.1 µM; in assay [4], above 1 µM.

With `COC(=O)N[C@@H]1CC[C@@H](n2c(=O)n(C)c3cnc(Nc4cc(NC(=O)OC5CCC5)cc(-c5cnn(C)c5)c4)cc32)C1` [Example 56, Methyl ((1R,3R)-3-(6-((3-((cyclobutoxycarbonyl)amino)-5-(1-methyl-1H-pyrazol-4-yl)phenyl)amino)-3-methyl-2-oxo-2,3-dihydro-1H-imidazo[4,5-c]pyridin-1-yl)cyclopentyl)carbamate], the IC50 was above 1 µM in assay [1], at most 0.01 µM in assay [2], at most 0.01 µM in assay [3] and above 1 µM in assay [4].

For the compound `COC(=O)N[C@@H]1CC[C@@H](n2c(=O)n(C)c3cnc(Nc4cc(NC(=O)C5CC5)cc(-c5cnn(C)c5)c4)cc32)C1` [Example 57, Methyl ((1R,3R)-3-(6-((3-(cyclopropanecarboxamido)-5-(1-methyl-1H-pyrazol-4-yl)phenyl)amino)-3-methyl-2-oxo-2,3-dihydro-1H-imidazo[4,5-c]pyridin-1-yl)cyclopentyl)carbamate], the IC50 is above 1 µM in assay [1], at most 0.01 µM in assay [2], at most 0.01 µM in assay [3] and above 1 µM in assay [4].

`[2H]C([2H])([2H])n1c(=O)n([C@@H]2CC[C@@H](NC(=O)OC)C2)c2cc(Nc3ccc4cccc(C5(C)CC5)c4n3)ncc21` [Example 58, Methyl ((1R,3R)-3-(3-(methyl-d3)-6-((8-(1-methylcyclopropyl)quinolin-2-yl)amino)-2-oxo-2,3-dihydro-1H-imidazo[4,5-c]pyridin-1-yl)cyclopentyl)carbamate]: the IC50 was above 1 µM in assay [1], at most 0.01 µM in assay [2], at most 0.01 µM in assay [3] and above 1 µM in assay [4].

Consider `[2H]C([2H])([2H])n1cc(-c2cnc3ccc(Nc4cc5c(cn4)n(C)c(=O)n5[C@@H]4CC[C@@H](NC(=O)OC)C4)nn23)c(F)n1` [Example 59, Methyl ((1R,3R)-3-(6-((3-(3-fluoro-1-(methyl-d3)-1H-pyrazol-4-yl)imidazo[1,2-b]pyridazin-6-yl)amino)-3-methyl-2-oxo-2,3-dihydro-1H-imidazo[4,5-c]pyridin-1-yl)cyclopentyl)carbamate], for which the IC50 was above 1 µM in assay [1], at most 0.01 µM in assay [2], at most 0.01 µM in assay [3] and above 1 µM in assay [4].

Take `Cn1cc(-c2cc(NC(=O)OC3CCC3)cc(Nc3cc4c(cn3)n(C)c(=O)n4C3CCCC3)c2)cn1` [Example 60, Cyclobutyl (3-((1-cyclopentyl-3-methyl-2-oxo-2,3-dihydro-1H-imidazo[4,5-c]pyridin-6-yl)amino)-5-(1-methyl-1H-pyrazol-4-yl)phenyl)carbamate]: the IC50 in assay [1] was above 1 µM; in assay [2], 0.01 to 0.1 µM; in assay [3], 0.01 to 0.1 µM; in assay [4], above 1 µM.

Take `Cn1c(=O)n(C2CCCC2)c2cc(Nc3cc(NC(=O)OC4CCC4)cc(-c4cnn(C5CC5)c4)c3)ncc21` [Example 61, Cyclobutyl (3-((1-cyclopentyl-3-methyl-2-oxo-2,3-dihydro-1H-imidazo[4,5-c]pyridin-6-yl)amino)-5-(1-cyclopropyl-1H-pyrazol-4-yl)phenyl)carbamate]: the IC50 in assay [1] was above 1 µM; in assay [2], 0.01 to 0.1 µM; in assay [3], 0.1 to 0.5 µM; in assay [4], above 1 µM.
